Consider twelve compounds from ChEMBL document CHEMBL5532666 (J Med Chem, 2024).

Molecules are shown by their SMILES. The source made the active and inactive calls. No cut-off for these calls is given here.

Series [1] has as its target Glycogen synthase kinase-3 beta (Homo sapiens) (UniProt P49841). The series is described as follows: Binding affinity to GSK3B (unknown origin) assessed as thermal stabilization by measuring change in melting temperature by DSF analysis. In general terms: DSF heats the sample and reads unfolding from a dye or from intrinsic fluorescence.
In series [2] the target is T1, Serine/threonine-protein kinase 4 (Homo sapiens, UniProt Q13043).
T1 sequence (Q13043 whole entry): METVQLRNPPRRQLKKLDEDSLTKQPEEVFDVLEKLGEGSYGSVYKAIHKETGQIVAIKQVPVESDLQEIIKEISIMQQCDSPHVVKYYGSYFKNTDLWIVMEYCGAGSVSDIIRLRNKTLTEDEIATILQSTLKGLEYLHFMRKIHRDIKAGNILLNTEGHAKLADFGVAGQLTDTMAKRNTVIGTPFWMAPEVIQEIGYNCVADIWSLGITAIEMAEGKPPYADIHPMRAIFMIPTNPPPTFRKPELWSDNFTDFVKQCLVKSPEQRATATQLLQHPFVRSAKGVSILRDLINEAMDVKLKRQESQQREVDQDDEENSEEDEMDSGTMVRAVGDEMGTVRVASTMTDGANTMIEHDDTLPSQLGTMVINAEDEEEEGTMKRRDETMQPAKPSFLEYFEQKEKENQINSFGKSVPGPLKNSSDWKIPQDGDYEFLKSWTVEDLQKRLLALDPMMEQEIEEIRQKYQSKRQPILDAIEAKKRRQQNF
The series is described as follows: Binding affinity to N-terminal full length human MST1 expressed in intact HEK293T cells incubated for 2 hrs by NanoBRET assay. Format: cell-based.

Series [3] addresses T2, Serine/threonine-protein kinase 3 (Homo sapiens, UniProt Q13188).
T2 sequence (Q13188 whole entry): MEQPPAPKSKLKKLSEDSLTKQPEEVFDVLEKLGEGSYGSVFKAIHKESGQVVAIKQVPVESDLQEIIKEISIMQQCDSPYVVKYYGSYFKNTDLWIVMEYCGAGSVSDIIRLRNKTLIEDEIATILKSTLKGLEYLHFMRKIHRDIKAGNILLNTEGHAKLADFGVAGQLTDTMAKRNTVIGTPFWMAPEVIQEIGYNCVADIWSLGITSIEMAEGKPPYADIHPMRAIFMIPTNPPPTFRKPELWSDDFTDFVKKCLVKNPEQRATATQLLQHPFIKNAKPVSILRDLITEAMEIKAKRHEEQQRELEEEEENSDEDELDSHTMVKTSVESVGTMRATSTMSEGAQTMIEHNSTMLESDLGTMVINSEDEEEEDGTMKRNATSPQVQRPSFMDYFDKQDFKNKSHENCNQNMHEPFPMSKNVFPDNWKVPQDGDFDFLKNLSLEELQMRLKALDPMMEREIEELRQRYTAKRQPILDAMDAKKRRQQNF
The experiment in a line: Binding affinity to N-terminal full length human MST2 expressed in intact HEK293T cells incubated for 2 hrs by NanoBRET assay. Format: cell-based. Background: BRET reads energy transfer from a luciferase to a nearby fluorophore.

Series [4] concerns the target T3, Serine/threonine-protein kinase 24 (Homo sapiens, UniProt Q9Y6E0). The series is described as follows: Binding affinity to C-terminal full length human MST3 expressed in intact HEK293T cells incubated for 2 hrs by NanoBRET assay. Format: cell-based.
Target sequence in this assay (Q9Y6E0 whole entry): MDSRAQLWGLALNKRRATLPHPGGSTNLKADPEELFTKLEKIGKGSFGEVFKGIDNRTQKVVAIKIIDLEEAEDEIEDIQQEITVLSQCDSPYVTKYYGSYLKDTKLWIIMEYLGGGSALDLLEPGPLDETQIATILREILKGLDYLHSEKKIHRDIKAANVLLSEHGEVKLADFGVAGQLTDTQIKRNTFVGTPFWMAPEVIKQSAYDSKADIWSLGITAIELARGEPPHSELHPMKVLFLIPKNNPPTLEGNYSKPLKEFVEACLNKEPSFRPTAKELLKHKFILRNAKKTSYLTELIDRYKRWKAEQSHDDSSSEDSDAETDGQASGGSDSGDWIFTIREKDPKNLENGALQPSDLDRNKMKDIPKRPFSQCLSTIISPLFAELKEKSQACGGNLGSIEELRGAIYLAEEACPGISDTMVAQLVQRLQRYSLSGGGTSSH
In series [5] the target is T4, Serine/threonine-protein kinase 26 (Homo sapiens, UniProt Q9P289). The experiment in a line: Binding affinity to C-terminal full length human MST4 expressed in intact HEK293T cells incubated for 2 hrs by NanoBRET assay. Format: cell-based.
Target sequence in this assay (Q9P289 whole entry): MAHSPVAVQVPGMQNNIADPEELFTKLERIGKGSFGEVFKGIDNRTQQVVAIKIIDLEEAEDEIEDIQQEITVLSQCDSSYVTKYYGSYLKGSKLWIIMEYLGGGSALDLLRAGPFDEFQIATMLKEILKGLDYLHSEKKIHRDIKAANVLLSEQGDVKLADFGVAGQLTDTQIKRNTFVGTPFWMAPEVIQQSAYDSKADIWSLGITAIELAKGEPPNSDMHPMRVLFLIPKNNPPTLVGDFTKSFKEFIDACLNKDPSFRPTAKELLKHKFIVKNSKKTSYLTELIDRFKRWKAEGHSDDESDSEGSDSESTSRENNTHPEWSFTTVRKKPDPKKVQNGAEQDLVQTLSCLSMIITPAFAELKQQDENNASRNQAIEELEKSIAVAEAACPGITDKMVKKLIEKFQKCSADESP
In series [6] the target is T3, Serine/threonine-protein kinase 24. The experiment in a line: Binding affinity to C-terminal full length human MST3 expressed in permeabilized HEK293T cells incubated for 2 hrs by NanoBRET assay. Format: cell-based.
Target sequence in this assay (Q9Y6E0 whole entry): as the sequence (Q9Y6E0 whole entry) above
Series [7] deals with T4, Serine/threonine-protein kinase 26. The series is described as follows: Binding affinity to C-terminal full length human MST4 expressed in permeabilized HEK293T cells incubated for 2 hrs by NanoBRET assay. Format: cell-based.
Target sequence in this assay (Q9P289 whole entry): as the sequence (Q9P289 whole entry) above
Series [8] has as its target T5, Serine/threonine-protein kinase 4 (Homo sapiens) (UniProt Q13043).
T5 sequence (whole entry): T1 sequence (Q13043 whole entry)
The conditions noted are these: dose 10.0 µM.
Description: Binding affinity to recombinant MST1 (unknown origin) kinase domain assessed as thermal stabilization by measuring change in melting temperature at 10 uM by DSF analysis

Series [9] concerns the target T6, Serine/threonine-protein kinase 3 (Homo sapiens) (UniProt Q13188).
T6 sequence (whole entry): T2 sequence (Q13188 whole entry)
As to conditions: dose 10.0 µM.
Description: Binding affinity to recombinant MST2 (unknown origin) kinase domain assessed as thermal stabilization by measuring change in melting temperature at 10 uM by DSF analysis

Series [10] addresses T3, Serine/threonine-protein kinase 24. As to conditions: dose 10.0 µM.
Target sequence in this assay (Q9Y6E0 whole entry, looked up): as the sequence (Q9Y6E0 whole entry) above
Description: Binding affinity to recombinant MST3 (unknown origin) kinase domain assessed as thermal stabilization by measuring change in melting temperature at 10 uM by DSF analysis
Series [11] has as its target T4, Serine/threonine-protein kinase 26. The conditions noted are these: dose 10.0 µM.
Target sequence in this assay (Q9P289 2-416 limits assumed): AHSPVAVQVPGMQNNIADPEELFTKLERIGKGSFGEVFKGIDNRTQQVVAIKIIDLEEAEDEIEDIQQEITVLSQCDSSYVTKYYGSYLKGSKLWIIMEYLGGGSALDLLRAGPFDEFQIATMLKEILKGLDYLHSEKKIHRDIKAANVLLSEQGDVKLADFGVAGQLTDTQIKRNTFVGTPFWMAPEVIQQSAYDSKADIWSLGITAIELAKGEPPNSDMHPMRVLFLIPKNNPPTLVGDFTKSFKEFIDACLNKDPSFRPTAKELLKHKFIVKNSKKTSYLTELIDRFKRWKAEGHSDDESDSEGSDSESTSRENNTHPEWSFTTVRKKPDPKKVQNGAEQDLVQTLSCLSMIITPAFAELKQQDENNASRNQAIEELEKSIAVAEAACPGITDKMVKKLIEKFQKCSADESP
Description: Binding affinity to recombinant MST4 (unknown origin) kinase domain assessed as thermal stabilization by measuring change in melting temperature at 10 uM by DSF analysis
The test system of series [12] is HCT-116. The experiment in a line: Cell cycle arrest in human HCT-116 cells expressing […] assessed as S phase cells at 10 uM incubated for 72 hrs by Hoechst33342 staining based analysis relative to control. In kind it is functional.
Series [13] deals with HCT-116. The experiment in a line: Cell cycle arrest in human HCT-116 cells expressing […] assessed as G2/M phase cells at 10 uM incubated for 72 hrs by Hoechst33342 staining based analysis (reference value: 38%). Format: functional.
In series [14] the test system is HCT-116. The experiment in a line: Cell cycle arrest in human HCT-116 cells expressing […] assessed as G1 phase cells at 10 uM incubated for 72 hrs by Hoechst33342 staining based analysis (reference value: 52%). Format: functional.
In series [15] the test system is HCT-116. The series is described as follows: Cell cycle arrest in human HCT-116 cells expressing […] assessed as G2/M phase cells at 1 uM incubated for 72 hrs by Hoechst33342 staining based analysis (reference value: 38%). Format: functional.
For series [16], the system named is HCT-116. The experiment in a line: Cell cycle arrest in human HCT-116 cells expressing […] assessed as G1 phase cells at 1 uM incubated for 72 hrs by Hoechst33342 staining based analysis (reference value: 52%). Format: functional.
In series [17] the target is T5, Serine/threonine-protein kinase 4 (Homo sapiens). The experiment in a line: Binding affinity to MST1 (unknown origin) assessed as residual activity at 10 uM relative to control.
The target in series [18] is T6, Serine/threonine-protein kinase 3 (Homo sapiens). The series is described as follows: Binding affinity to MST2 (unknown origin) assessed as residual activity at 10 uM relative to control.
The target in series [19] is T4, Serine/threonine-protein kinase 26. The experiment in a line: Binding affinity to MST4 (unknown origin) assessed as residual activity at 10 uM relative to control.
Target sequence in this assay (Q9P289 2-416 limits assumed): as above
The subject of series [20] is HCT-116. The series is described as follows: Cell cycle arrest in human HCT-116 cells expressing […] assessed as S phase cells at 1 uM incubated for 72 hrs by Hoechst33342 staining based analysis relative to control. Format: functional.
A short description of series [21]: Toxicity in human HCT-116 cells expressing FUCCI assessed as decrease in normalized cell count at 1 to 10 uM measured after 72 hrs by Hoechst33342 staining based analysis relative to control. The conditions noted are these: hct-116, 72 h, dose 1-10 µM. On the set-up: scale not given: the % may be the effect or the level left.

Glycogen synthase kinase-3 beta (Homo sapiens), sequence (P49841 whole entry, looked up): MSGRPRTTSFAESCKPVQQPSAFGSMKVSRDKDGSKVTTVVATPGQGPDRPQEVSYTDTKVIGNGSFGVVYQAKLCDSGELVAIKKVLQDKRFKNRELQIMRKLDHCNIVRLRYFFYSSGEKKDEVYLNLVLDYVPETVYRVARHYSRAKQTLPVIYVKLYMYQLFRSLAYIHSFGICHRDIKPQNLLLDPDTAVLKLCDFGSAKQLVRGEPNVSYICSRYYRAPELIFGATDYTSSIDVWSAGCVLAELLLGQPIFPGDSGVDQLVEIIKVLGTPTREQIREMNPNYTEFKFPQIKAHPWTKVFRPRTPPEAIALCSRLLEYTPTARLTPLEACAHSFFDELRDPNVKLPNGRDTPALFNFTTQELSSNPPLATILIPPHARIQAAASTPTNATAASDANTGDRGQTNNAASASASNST

A word on the EC50: it is the concentration that produces a half-maximal response. Broadly, the ΔTm is the shift of the melting midpoint relative to a reference. On to `O=C1NCCOCCNc2nc(c3ccccc3n2)Nc2cc1[nH]n2`, for which, in series [1], the outcome was inactive. The EC50 in series [2] is above 50 µM; in series [3], above 50 µM; in series [4] it was 4.49 µM; in series [5], 37.6 µM; in series [6], 1.23 µM; in series [7], 4.3 µM. The shift in melting temperature (ΔTm) in series [8] stood at 0.6 °C; in series [9], 0.5 °C; in [10] it was 2.5 °C; in series [11], 2.5 °C.
On to `O=C1NCCc2cccc(c2)Nc2ncc(Cl)c(n2)Nc2cc1[nH]n2`, for which the EC50 in [2] worked out at 7.84 µM; in [3], 7.54 µM; in series [4], 14.1 µM; in [5], 10.2 µM; in series [6], 8.53 µM; in series [7], 10.3 µM. Moreover, the ΔTm in series [8] is 0.8 °C; in series [9], 1.7 °C; in series [10], 2.9 °C; in [11], 0.6 °C.
Regarding `O=C1NCCCCCCNc2ncc(Cl)c(n2)Nc2cc1[nH]n2`, the EC50 is above 50 µM in series [2]; above 50 µM in [3]; above 50 µM in [4]; above 50 µM in series [5]; 21.9 µM in series [6]; 45 µM in series [7]. Moreover, the ΔTm in series [8] was found to be 1.5 °C; in series [9], 1 °C; in [10] it was 0.3 °C; in [11] it was 2.1 °C.
In the case of `O=C1NCCc2ccc(cc2)Nc2ncc(Cl)c(n2)Nc2cc1[nH]n2`, the EC50 in series [2] worked out at 11.8 µM; in [3] it was 9.96 µM; in series [4], 4.97 µM; in [5], 6.71 µM; in series [6], 5.17 µM; in [7] it was 7.61 µM. The ΔTm amounted to 0.3 °C in series [8], 0.7 °C in series [9], 1.2 °C in [10] and 0.7 °C in [11].
For `O=C1NCCc2ccc(cc2)Nc2nc(c3ccccc3n2)Nc2cc1[nH]n2`, the concentration giving a half-maximal response (EC50) in [2] was found to be 28.6 µM; in [3], 28.3 µM; in series [4], 4.45 µM; in series [5], 17.5 µM; in series [6] it was 1.46 µM; in series [7], 2.75 µM. The ΔTm in series [8] worked out at 1 °C; in series [9] it was 2.3 °C; in [10] it was 3.3 °C; in series [11], 4.7 °C.
For the compound `Cc1cnc2nc1Nc1cc([nH]n1)C(=O)NCCc1ccc(cc1)N2`, the EC50 was above 50 µM in series [2]; above 50 µM in series [3]; 37 µM in series [4]; 38.8 µM in series [5]; 38.3 µM in series [6]; above 50 µM in series [7]. Also, the ΔTm in series [8] is 1 °C; in [9], 0.2 °C; in series [10], 0.5 °C; in [11], 2.3 °C.
For `O=C1NCCc2cccc(c2)Nc2nc(c3ccccc3n2)Nc2cc1[nH]n2`, the concentration giving a half-maximal response (EC50) stood at 13.7 µM in series [2]; 13 µM in [3]; 6.51 µM in series [4]; 11.8 µM in series [5]; 0.92 µM in [6]; 2.44 µM in [7]. For the same compound, the ΔTm in [8] amounted to 1.7 °C; in [9], 1.3 °C; in series [10], 3.9 °C; in series [11] it was 4 °C.
With `O=C1NCCOCCNc2ncc(Cl)c(n2)Nc2cc1[nH]n2`, the EC50 in series [2] is above 50 µM; in [3], above 50 µM; in series [4], above 50 µM; in series [5] it was above 50 µM; in [6] it was 17.7 µM; in [7] it was 41.8 µM. In addition, the ΔTm in [8] is 1.1 °C; in series [9] it was 0.6 °C; in series [10], 0.6 °C; in series [11], 2.8 °C.
Take `CNC(=O)c1nn(C)c2c1C(C)(C)Cc1cnc(Nc3ccc(N4CCN(C)CC4)cc3)nc1-2` [MILCICLIB]: the Activity in the series with HCT-116 [12] is 16%; in the series on HCT-116 [13], 21%; with HCT-116 [14], 63%; in the series with HCT-116 [15] it was 19%; with HCT-116 [16] it was 72%.
As to `N#CCc1ccc(Nc2nccc(Nc3cc(C4CC4)[nH]n3)n2)cc1`, the Activity in series [17] is 0.15%; in series [18] it was 0.15%; in series [19], 0.15%; in the series with HCT-116 [12] it was 16%; in the series on HCT-116 [13], 42%; with HCT-116 [14], 42%. Further, the Activity is on record as 18% in the series on HCT-116 [20], 30% in the series on HCT-116 [15], 52% in the series with HCT-116 [16] and below 50% in series [21]. The EC50 is 6.54 µM in series [4] and 4.84 µM in series [5]. Besides, the ΔTm in [8] was found to be 9.6 °C; in series [9], 11.6 °C; in series [10], 9.3 °C; in series [11] it was 7.1 °C.
As to `O=C1NCCCCCCNc2nc(c3ccccc3n2)Nc2cc1[nH]n2`, the shift in melting temperature (ΔTm) in [1] was above 5 °C; in [8], 0.7 °C; in series [9] it was 0.4 °C; in series [10] it was 3.7 °C; in series [11], 4 °C. Also, the EC50 is above 50 µM in series [2]; 40.1 µM in [3]; 1.75 µM in series [4]; 0.45 µM in [6]; 1.26 µM in series [7].
For the compound `O=C1NCCCCCNc2ncc(Cl)c(n2)Nc2cc1[nH]n2`, the EC50 is 9.74 µM in series [2]; 10.1 µM in series [3]; 40.3 µM in [4]; above 50 µM in series [5]; 2.67 µM in series [6]; 7.76 µM in series [7]. Moreover, the ΔTm was 2.5 °C in [8], 2.8 °C in [9], 2.7 °C in [10] and 1.6 °C in series [11].
